Source: article PMC7966987, “Insights into the catalytic properties of the mitochondrial rhomboid protease PARL” (The Journal of Biological Chemistry, 2021)
Read-outs that look alike come from different tables or passages of the source.

T1: PARLΔ77 (Homo sapiens, UniProt Q9H300)
T1 construct: GFP-hexahistidine (behind a TEV cleavage site) (C, cleaved yes); made in house; host or cells: Pichia pastoris
T1 sequence (Q9H300 78-379): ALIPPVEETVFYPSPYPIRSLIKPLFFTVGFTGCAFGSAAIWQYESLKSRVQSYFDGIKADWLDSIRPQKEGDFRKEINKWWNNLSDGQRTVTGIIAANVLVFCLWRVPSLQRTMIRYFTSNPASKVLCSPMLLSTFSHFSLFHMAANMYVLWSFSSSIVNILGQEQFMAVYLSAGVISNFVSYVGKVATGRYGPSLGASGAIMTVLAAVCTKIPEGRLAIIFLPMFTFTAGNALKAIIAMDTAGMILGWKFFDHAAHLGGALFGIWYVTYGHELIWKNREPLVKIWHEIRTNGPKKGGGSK

B1: HiGlpG: bacterial rhomboid protease from Haemophilus influenzae (protein, UniProt P44783 1-192, looked up)
Rhomboid protease GlpG: MKNFLAQQGKITLILTALCVLIYLAQQLGFEDDIMYLMHYPAYEEQDSEVWRYISHTLVHLSNLHILFNLSWFFIFGGMIERTFGSVKLLMLYVVASAITGYVQNYVSGPAFFGLSGVVYAVLGYVFIRDKLNHHLFDLPEGFFTMLLVGIALGFISPLFGVEMGNAAHISGLIVGLIWGFIDSKLRKNSLE
B2: GlpG: E. coli rhomboid protease (protein, UniProt P09391 1-276, looked up)
Rhomboid protease GlpG: MLMITSFANPRVAQAFVDYMATQGVILTIQQHNQSDVWLADESQAERVRAELARFLENPADPRYLAASWQAGHTGSGLHYRRYPFFAALRERAGPVTWVMMIACVVVFIAMQILGDQEVMLWLAWPFDPTLKFEFWRYFTHALMHFSLMHILFNLLWWWYLGGAVEKRLGSGKLIVITLISALLSGYVQQKFSGPWFGGLSGVVYALMGYVWLRGERDPQSGIYLQRGLIIFALIWIVAGWFDLFGMSMANGAHIAGLAVGLAMAFVDSLNARKRK
B3: AarA: bacterial rhomboid protease from P. stuartii (protein, UniProt P46116 1-281, looked up)
Rhomboid protease AarA: MAEQQNPFSIKSKARFSLGAIALTLTLVLLNIAVYFYQIVFASPLDSRESNLILFGANIYQLSLTGDWWRYPISMMLHSNGTHLAFNCLALFVIGIGCERAYGKFKLLAIYIISGIGAALFSAYWQYYEISNSDLWTDSTVYITIGVGASGAIMGIAAASVIYLIKVVINKPNPHPVIQRRQKYQLYNLIAMIALTLINGLQSGVDNAAHIGGAIIGALISIAYILVPHKLRVANLCITVIAASLLTMMIYLYSFSTNKHLLEEREFIYQEVYTELADANQ

Assays:
PARLΔ77 [1] = biological target: T1, PARLΔ77; assay: Multiplex substrate profiling by mass spectrometry (MSP-MS), PARLΔ77 in proteoliposomes; assay type: biochemical; conditions: PARLΔ77 1 μM in PL containing PC, PE and CL, peptides 0.5 μM each, pH 7.0, without DDM, LC-MS/MS, quadruplicate; for FC_60min (fold change of cleavage product, Annotated_Sequence): 60 vs 0 min; for FC_240min (fold change of cleavage product, Annotated_Sequence): 240 vs 0 min
Description: (§1) Multiplex substrate profiling by mass spectrometry (MSP-MS) assays was performed in quadruplicate. In total, 1 μM of PARLΔ77 was incubated with an equimolar mixture of 228 synthetic tetradecapeptides at a final concentration of 0.5 μM for each peptide in 50 mM Tris-HCl pH 7.0, 150 mM NaCl, 10% glycerol, with or without 0.1% DDM. The sequence of each peptide is listed in Supplementary Data File. These peptides have been validated as substrates for a wide variety of proteolytic enzymes (PMID 23023596, 24073241, 25944934) including bacterial rhomboid proteases (30705125). For each assay, 20 μl of the reaction mixture was removed after 0, 60, and 240 min of incubation. Enzyme activity was quenched by adding GuHCl (MP Biomedicals) to a final concentration of 6.4 M, and samples were immediately stored at –80 °C. All samples were desalted using C18 spin columns and dried by vacuum centrifugation.
(§2) Approximately 2 μg of peptides was injected into a Q-Exactive Mass Spectrometer (Thermo) equipped with an Ultimate 3000 HPLC. Peptides were separated by reverse-phase chromatography on a C18 column (1.7 μm bead size, 75 μm × 25 cm, 65 °C) at a flow rate of 300 nl/min using a 60-min linear gradient from 5% to 30% B, with solvent A: 0.1% formic acid in water and solvent B: 0.1% formic acid in acetonitrile. Survey scans were recorded over a 150–2000 m/z range (70,000 resolutions at 200 m/z, AGC target 3 × 10^6, 100 ms maximum). MS/MS was performed in data-dependent acquisition mode with HCD fragmentation (28 normalized collision energy) on the 12 most intense precursor ions (17,500 resolutions at 200 m/z, AGC target 1 × 10^5, 50 ms maximum, dynamic exclusion 20 s).
(§3) Data was processed using PEAKS 8.5 (Bioinformatics Solutions Inc). MS^2 data were searched against the 228 tetradecapeptide library sequences with decoy sequences in reverse order. A precursor tolerance of 20 ppm and 0.01 Da for MS^2 fragments was defined. No protease digestion and modification were specified. Data were filtered to 1% peptide-level false discovery rates with the target-decoy strategy. Peptides were quantified with label-free quantification and data are normalized by medians and filtered by 0.3 peptide quality. Missing and zero values are imputed with random normally distributed numbers in the range of the average of smallest 5% of the data ± SD. Cleaved sequences were defined as peptide products that increase by a fold change of >8 and q value <0.05 (by Student t test) between 0 min and 240 min. IceLogo software was used for visualization of amino-acid frequency surrounding the cleavage sites. Amino acids that were most frequently observed (above axis) and least frequently observed (below axis) from P4 to P4ʹ positions were illustrated. Norleucine (Nle) was represented as “n” in the reported profiles. Mass spectrometry data and searching results have been deposited in MassIVE with accession number, MSV000085295.

PARLΔ77 [2] = biological target: T1, PARLΔ77; assay: Multiplex substrate profiling by mass spectrometry (MSP-MS), PARLΔ77 in DDM; assay type: biochemical; conditions: PARLΔ77 1 μM, 0.1% DDM, peptides 0.5 μM each, LC-MS/MS, quadruplicate; for FC_60min (fold change of cleavage product, Annotated_Sequence): pH 7.0, 60 vs 0 min; for FC_240min (fold change of cleavage product, Annotated_Sequence): pH 7.0, 240 vs 0 min
Description: as §1, §2, §3

preferred substrates = conditions: cited from earlier work
Description: The bacterial rhomboid proteases from Haemophilus influenzae (HiGlpG) and P. stuartii (AarA) cleave at a rate of roughly two per minute for their preferred substrates in DDM, while the E. coli rhomboid protease GlpG cleaves slowly in DDM, much like PARL, at a rate of approximately six per hour and with a rate of 2.5 min^−1 in PLs ([26], [34], [35]).

| Molecule | FC_60min (fold change of cleavage product, Annotated_Sequence) (PARLΔ77 [1]) | FC_240min (fold change of cleavage product, Annotated_Sequence) (PARLΔ77 [1]) | FC_60min (fold change of cleavage product, Annotated_Sequence) (PARLΔ77 [2]; TDP160: product INDFLVR.T) | FC_240min (fold change of cleavage product, Annotated_Sequence) (PARLΔ77 [2]; TDP160: product INDFLVR.T) | further results |
| --- | --- | --- | --- | --- | --- |
| AETSIKVFMPYYGH [TDP91, synthetic tetradecapeptide of the 228-peptide library] | 43.5042 | 295.878 | – | – | – |
| AMTDRGWYLAIQAV [TDP15, synthetic tetradecapeptide of the 228-peptide library] | – | – | 247.32 | 689.515 | – |
| GPKLTYDFWIQNLP [TDP89, synthetic tetradecapeptide of the 228-peptide library] | – | – | 270.23 | 1077.04 | – |
| GQYPMFVKISTTHW [TDP96, synthetic tetradecapeptide of the 228-peptide library] | 35.4935 | 328.605 | – | – | – |
| INDFLVRTWKMPGL [TDP160, synthetic tetradecapeptide of the 228-peptide library] | – | – | 264.961 | 895.528 | FC_60min (fold change of cleavage product, Annotated_Sequence) (PARLΔ77 [2]; product F.LVRTWKLPGL): 150.552; FC_240min (fold change of cleavage product, Annotated_Sequence) (PARLΔ77 [2]; product F.LVRTWKLPGL): 507.811 |
| MHSPWTMANFLRGP [TDP94, synthetic tetradecapeptide of the 228-peptide library] | 254.488 | 1890.88 | 682.585 | 2284.43 | – |
| NVDWTAPQLIEYLD [TDP138, synthetic tetradecapeptide of the 228-peptide library] | 42.87 | 40.3813 | – | – | – |
| QAVRPNGMYWHYLM [TDP216, synthetic tetradecapeptide of the 228-peptide library] | 43.2174 | 200.338 | – | – | – |
| B1 | – | – | – | – | cleavage rate (preferred substrates; preferred substrates, in DDM): roughly two |
| B2 | – | – | – | – | cleavage rate (preferred substrates; in DDM): approximately six; cleavage rate (preferred substrates; in PLs): 2.5 min⁻¹ |
| B3 | – | – | – | – | cleavage rate (preferred substrates; preferred substrates, in DDM): roughly two |
